Measurements as given in US10308650B2, “Pesticidally active tetracyclic derivatives with sulfur containing substituents” (Syngenta Participations AG, priority 2014, dated 2019).

What was measured:
Assay type in all cases: in vivo
[1] = test system: Diabrotica balteata (Corn Root Worm); experiment: Activity against Diabrotica balteata; conditions: 96 h, application rate of 200 ppm, maize sprouts, L2 larvae, 4 days after infestation, read-out: effect in at least one of the two categories (mortality or growth inhibition)
Protocol: Example B2: Activity Against Diabrotica balteata (Corn Root Worm)
Maize sprouts placed onto an agar layer in 24-well microtiter plates were treated with aqueous test solutions prepared from 10,000 ppm DMSO stock solutions by spraying. After drying, the plates were infested with L2 larvae (6 to 10 per well). The samples were assessed for mortality and growth inhibition in comparison to untreated samples 4 days after infestation.

[2] = test system: Euschistus heros (Neotropical Brown Stink Bug); experiment: Activity against Euschistus heros; conditions: 120 h, application rate of 200 ppm, soybean leaves, N2 nymphs, 5 days after infestation, read-out: effect in at least one of the two categories (mortality or growth inhibition)
Protocol: Example B3: Activity Against Euschistus heros (Neotropical Brown Stink Bug)
Soybean leaves on agar in 24-well microtiter plates were sprayed with aqueous test solutions prepared from 10,000 ppm DMSO stock solutions. After drying the leaves were infested with N2 nymphs. The samples were assessed for mortality and growth inhibition in comparison to untreated samples 5 days after infestation.

[3] = test system: Myzus persicae (Green Peach Aphid); experiment: Activity against Myzus persicae: systemic activity; conditions: 144 h, test rate of 24 ppm, roots of infested pea seedlings in test solution, 6 days, read-out: mortality
Protocol: Example B6: Activity Against Myzus persicae (Green Peach Aphid). Systemic Activity
Roots of pea seedlings infested with an aphid population of mixed ages were placed directly into aqueous test solutions prepared from 10,000 DMSO stock solutions. The samples were assessed for mortality 6 days after placing seedlings into test solutions.

[4] = test system: Myzus persicae (Green Peach Aphid); experiment: Activity against Myzus persicae: feeding/contact activity; conditions: foliar, 144 h, application rate of 200 ppm, sunflower leaf discs, aphid population of mixed ages, 6 days after infestation, read-out: mortality
Protocol: Example B5: Activity Against Myzus persicae (Green Peach Aphid): Feeding/Contact Activity
Sunflower leaf discs were placed onto agar in a 24-well microtiter plate and sprayed with aqueous test solutions prepared from 10,000 ppm DMSO stock solutions. After drying, the leaf discs were infested with an aphid population of mixed ages. The samples were assessed for mortality 6 days after infestation.

[5] = test system: Plutella xylostella (Diamond Back Moth); experiment: Activity against Plutella xylostella; conditions: 120 h, application rate of 200 ppm, artificial diet, L2 larvae, 5 days after infestation, read-out: effect in at least one of the two categories (mortality or growth inhibition)
Protocol: Example B8: Activity Against Plutella xylostella (Diamond Back Moth)
24-well microtiter plates with artificial diet were treated with aqueous test solutions prepared from 10,000 ppm DMSO stock solutions by pipetting. After drying, the plates were infested with L2 larvae (10 to 15 per well). The samples were assessed for mortality and growth inhibition in comparison to untreated samples 5 days after infestation.

SMILES: CCS(=O)(=O)c1cc2ncn(C)c2cc1-c1nc2cc(C(F)(F)F)ncc2n1C (single isomer, unassigned) [Compound A11, 2-(6-ethylsulfonyl-3-methyl-benzimidazol-5-yl)-3-methyl-6-(trifluoromethyl)imidazo[4,5-c]pyridine]
- percent effect (mortality or growth inhibition) at 200 ppm [1]: ≥ 80%
- percent effect (mortality or growth inhibition) at 200 ppm [2]: ≥ 80%
- mortality at 24 ppm [3]: ≥ 80%
- mortality at 200 ppm [4]: ≥ 80%

SMILES: CCS(=O)(=O)c1cc2nc(C)n(C)c2cc1-c1nc2cc(C(F)(F)F)ncc2n1C (single isomer, unassigned) [Compound A14, 2-(6-ethylsulfonyl-2,3-dimethyl-benzimidazol-5-yl)-3-methyl-6-(trifluoromethyl)imidazo[4,5-c]pyridine]
- percent effect (mortality or growth inhibition) at 200 ppm [2]: ≥ 80%
- mortality at 200 ppm [4]: ≥ 80%

SMILES: CCSc1cc2ccccc2cc1-c1nc2cc(C(F)(F)F)cnc2n1C [Compound A1, 2-(3-ethylsulfanyl-2-naphthyl)-3-methyl-6-(trifluoromethyl)imidazo[4,5-b]pyridine]
- percent effect (mortality or growth inhibition) at 200 ppm [1]: ≥ 80%
- percent effect (mortality or growth inhibition) at 200 ppm [2]: ≥ 80%

SMILES: CC[S+]([O-])c1cc2ccccc2cc1-c1nc2cc(C(F)(F)F)cnc2n1C (centres unmarked) [Compound A2, 2-(3-ethylsulfinyl-2-naphthyl)-3-methyl-6-(trifluoromethyl)imidazo[4,5-b]pyridine]
- percent effect (mortality or growth inhibition) at 200 ppm [1]: ≥ 80%
- percent effect (mortality or growth inhibition) at 200 ppm [2]: ≥ 80%

SMILES: CCS(=O)(=O)c1cc2nc(-c3ccccc3)[nH]c2cc1-c1nc2cc(C(F)(F)F)ncc2n1C [Compound A16, 2-(6-ethylsulfonyl-2-phenyl-3H-benzimidazol-5-yl)-3-methyl-6-(trifluoromethyl)imidazo[4,5-c]pyridine]
- percent effect (mortality or growth inhibition) at 200 ppm [5]: ≥ 80%

SMILES: CCS(=O)(=O)c1cc2nn[nH]c2cc1-c1nc2cc(C(F)(F)F)ncc2n1C [Compound A17, 2-(6-ethylsulfonyl-3H-benzotriazol-5-yl)-3-methyl-6-(trifluoromethyl)imidazo[4,5-c]pyridine]
- percent effect (mortality or growth inhibition) at 200 ppm [2]: ≥ 80%

SMILES: CCS(=O)(=O)c1cc2nccnc2cc1-c1nc2cc(C(F)(F)F)ncc2n1C [Compound A20, 6-ethylsulfonyl-7-[3-methyl-6-(trifluoromethyl)imidazo[4,5-c]pyridin-2-yl]quinoxaline]
- percent effect (mortality or growth inhibition) at 200 ppm [1]: ≥ 80%
- mortality at 24 ppm [3]: ≥ 80%

SMILES: CCSc1cc2cnccc2cc1-c1nc2cc(C(F)(F)F)ncc2n1C [Compound A25, 7-ethylsulfanyl-6-[3-methyl-6-(trifluoromethyl)imidazo[4,5-c]pyridin-2-yl]isoquinoline]
- percent effect (mortality or growth inhibition) at 200 ppm [1]: ≥ 80%
- percent effect (mortality or growth inhibition) at 200 ppm [2]: ≥ 80%

SMILES: CCS(=O)(=O)c1cc2cnccc2cc1-c1nc2cc(C(F)(F)F)ncc2n1C [Compound A26, 7-ethylsulfonyl-6-[3-methyl-6-(trifluoromethyl)imidazo[4,5-c]pyridin-2-yl]isoquinoline]
- percent effect (mortality or growth inhibition) at 200 ppm [2]: ≥ 80%

SMILES: CCS(=O)(=O)c1cc2ncsc2cc1-c1nc2cc(C(F)(F)F)ncc2n1C [Compound A30, 5-ethylsulfonyl-6-[3-methyl-6-(trifluoromethyl)imidazo[4,5-c]pyridin-2-yl]-1,3-benzothiazole]
- percent effect (mortality or growth inhibition) at 200 ppm [1]: ≥ 80%
- percent effect (mortality or growth inhibition) at 200 ppm [5]: ≥ 80%
- percent effect (mortality or growth inhibition) at 200 ppm [2]: ≥ 80%

SMILES: CCS(=O)(=O)c1cc2[nH]c(C(F)(F)F)nc2nc1-c1nc2cc(C(F)(F)F)ncc2n1C [Compound A34, 6-ethylsulfonyl-5-[3-methyl-6-(trifluoromethyl)imidazo[4,5-c]pyridin-2-yl]-2-(trifluoromethyl)-1H-imidazo[4,5-b]pyridine]
- percent effect (mortality or growth inhibition) at 200 ppm [1]: ≥ 80%
- percent effect (mortality or growth inhibition) at 200 ppm [2]: ≥ 80%
- mortality at 24 ppm [3]: ≥ 80%

SMILES: CCS(=O)(=O)c1cc2nnn(C)c2cc1-c1nc2cc(C(F)(F)F)ncc2n1C [Compound A35, 5-ethylsulfonyl-1-methyl-6-[3-methyl-6-(trifluoromethyl)imidazo[4,5-c]pyridin-2-yl]benzotriazole]
- percent effect (mortality or growth inhibition) at 200 ppm [1]: ≥ 80%
- mortality at 24 ppm [3]: ≥ 80%
- mortality at 200 ppm [4]: ≥ 80%
